How the values were obtained:
mouse aortic rings = experiment: Aortic ring sprouting angiogenesis assay; assay type: cell-based; conditions: 5 μM, 10 days, VEGF-stimulated
Experimental: Endothelial cell migration can also be studied ex vivo using the aortic ring assay in which sprouting angiogenesis is monitored by the formation of vascular sprouts outside the wall of mouse aortic rings incubated in collagen matrix and stimulated by VEGF (Gerhardt, H., et al. EXS, 3-15 (2005), hereby incorporated by reference in its entirety). Briefly, mice were obtained from the Cincinnati Children's veterinary service and handled according to the institutional animal care and use protocol. […] Mice were 4 to 6 weeks old female C57BL16, and aortic ring explants were cultured at 37° C. in a humidified incubator under a 5% CO2 atmosphere.
Each inhibitor was serially diluted (between 0.25 mM and 7.5 mM) to stocks of 1000× the working concentrations in sterile 100% DMSO in order to achieve an equal final concentration of DMSO (0.1% v/v) in all culture conditions. For the experiments, the compounds were diluted in EBM containing 2.5% FBS, penicillin/streptomycin and 20 ng/ml VEGF165 (R&D Systems, Minneapolis, Minn.). Each compound was applied from the first day of culture over a 10-day period with medium change every two days. In all experiments, the vehicle (DMSO, 0.1%) was used as control. The sprouting density was derived from counting the number of branches per ring, and the extent of angiogenic sprouting was estimated by measuring the total surface area covered by the vessels as illustrated in FIG. 7.

HUVECs [1] = experiment: HUVEC proliferation (MTT); assay type: cell-based, human; conditions: 5 μM, 24 hours
EYA3-SIX2 interaction = EYA3-SIX2 interaction (Homo sapiens (Human), UniProt Q99504); experiment: His-SIX2 pull-down of EYA3 on Ni-NTA; assay type: binding; conditions: 50 μM, 15 minutes
Chain of EYA3-SIX2 interaction (Q99504 whole entry, looked up, stated change not applied): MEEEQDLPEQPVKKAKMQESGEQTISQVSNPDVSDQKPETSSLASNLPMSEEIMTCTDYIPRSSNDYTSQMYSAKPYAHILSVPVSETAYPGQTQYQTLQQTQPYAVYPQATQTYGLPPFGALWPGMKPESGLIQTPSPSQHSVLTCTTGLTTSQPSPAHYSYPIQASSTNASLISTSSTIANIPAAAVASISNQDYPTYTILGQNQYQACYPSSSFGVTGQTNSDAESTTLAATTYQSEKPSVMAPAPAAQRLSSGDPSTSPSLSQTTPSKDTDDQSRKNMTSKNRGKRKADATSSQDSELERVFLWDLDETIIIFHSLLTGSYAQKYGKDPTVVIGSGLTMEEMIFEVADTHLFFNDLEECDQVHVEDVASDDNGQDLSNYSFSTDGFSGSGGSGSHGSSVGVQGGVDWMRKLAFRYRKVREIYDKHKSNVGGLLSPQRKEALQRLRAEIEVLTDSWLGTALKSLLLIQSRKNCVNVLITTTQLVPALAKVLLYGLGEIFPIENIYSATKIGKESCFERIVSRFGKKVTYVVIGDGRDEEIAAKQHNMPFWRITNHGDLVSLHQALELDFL
Chain of EYA3-SIX2 interaction (Q9NPC8 whole entry partner, looked up): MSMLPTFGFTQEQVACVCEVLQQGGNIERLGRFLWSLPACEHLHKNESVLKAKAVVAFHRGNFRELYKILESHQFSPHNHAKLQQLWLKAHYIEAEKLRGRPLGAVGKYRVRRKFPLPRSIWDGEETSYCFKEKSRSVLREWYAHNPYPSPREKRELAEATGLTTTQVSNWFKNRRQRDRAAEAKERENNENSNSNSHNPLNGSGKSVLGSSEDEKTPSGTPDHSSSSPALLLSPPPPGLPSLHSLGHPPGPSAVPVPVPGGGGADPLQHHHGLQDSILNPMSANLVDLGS
Excerpt: Each point represents the mean and standard deviation of two independent readings. (C) Plots of Vmax and Km as a function of inhibitor concentration. […] The mixture was loaded on a Ni-NTA column. Beads were washed with 3 column volumes of load buffer (last washes, lanes 2 and 6). Proteins retained on the beads are shown in lanes 3 and 7. Lanes 4 and 8 are molecular weight markers.
One function of the catalytic domain of the EYAs is to mediate its interaction with the SIX proteins. This complex then translocates to the nucleus where the SIX-EYA complex can activate transcription.

MCF10A-EYA2 cells = experiment: Transwell migration of MCF10A-EYA2 cells; assay type: cell-based; conditions: for migration of MCF10A(EYA2) cells: 7.5 μM
Excerpt: The tyrosine phosphatase activity of Eya3 and Eya2 promotes single cell motility in breast cancer cells (Pandey, R. N. et al. Oncogene (2010) 29:3715-3722, incorporated by reference in its entirety). EYA2 is over-expressed in breast cancers and is associated with increased metastasis and a poorer outcome (Farabaugh, et al. Oncogene (2011) 259). […] Overexpression of EYA2, but not the tyrosine-phosphatase dead mutant, promoted cell motility (FIG. 2a). […] This effect was dose-dependent (FIG. 2d) and compound (1a) was able to reduce cell motility by over 50% at the lowest concentration (1 μM) tested.
In order to determine whether EYA3 knock down would affect cell migration, a modified Boyden chamber assay was used to measure HUVEC migration. Briefly, human umbilical vein endothelial cells (HUVECs) were purchased from Lonza (Walkersville, Md.) and maintained in the endothelial cell growth medium (PromoCell, Heidelberg, Germany), under a 5% CO2 atmosphere. MCF10A cells from ATCC were stably transfected with either pcDNA 3.2N5-DEST (vector control), V5-EYA2 or V5-EYA2(D250N). Transwell migration experiments were performed as previously described (Pandey, R. N. et al. Oncogene 29, 3715-3722, (2010)).

[2] = system: developing zebrafish vasculature; experiment: Zebrafish model of angiogenesis; assay type: in vivo; conditions: for defects in the developing vasculature / number of intersegmental vessels: varying doses; for defects in the developing vasculature: exposure from 5.25 hpf, analysis at 24 hpf
Experimental: Embryos (FLK1-GFP trangenic) were maintained in fish water until the 50% epiboly stage (5.25 hpf) and were transferred into wells of 24-well plate containing the inhibitors in fish water. The analysis for vascular defects was performed after the 24 hpf stage, and embryos were imaged using a fluorescence microscope.
Transgenic fish expressing EGFP in endothelial cells (Tg(flk1:EGFP)) were used to facilitate visualization of the developing vasculature. In control experiments embryos were treated with 0.1% DMSO (vehicle). At the time of analyses (24 hpf) developing vessels normally migrated from the lateral plate mesoderm to the midline and formed the vascular cord, subsequently forming the dorsal aorta and the posterior cardinal vein and followed by the formation of intersegmental vessels at designated branch points (FIG. 6b).

[3] = molecular target: full-length human recombinant EYA3 (Homo sapiens (Human), UniProt Q99504); experiment: pNPP phosphatase assay, full-length EYA3; assay type: biochemical
Chain of full-length human recombinant EYA3 (Q99504 127-573): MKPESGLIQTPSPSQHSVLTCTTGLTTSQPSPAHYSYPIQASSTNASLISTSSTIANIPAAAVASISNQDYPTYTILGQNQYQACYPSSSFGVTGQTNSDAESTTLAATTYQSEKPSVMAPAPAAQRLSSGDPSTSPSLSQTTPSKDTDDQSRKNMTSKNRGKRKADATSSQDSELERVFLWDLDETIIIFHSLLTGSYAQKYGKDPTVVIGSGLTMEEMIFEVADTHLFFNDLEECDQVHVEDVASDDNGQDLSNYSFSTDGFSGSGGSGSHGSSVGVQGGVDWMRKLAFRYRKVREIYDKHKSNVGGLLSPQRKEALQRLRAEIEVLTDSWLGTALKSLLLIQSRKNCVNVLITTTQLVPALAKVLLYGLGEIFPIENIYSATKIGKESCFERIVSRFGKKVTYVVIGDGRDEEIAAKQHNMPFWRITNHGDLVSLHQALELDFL
Excerpt: The catalytic domain of mouse Eya3 (“ED”, comprising residues 223-510 of Eya3) was purified as described by Rayapureddi, J. P. et al. (FEBS Lett 580, 3853-3859 (2006), incorporated by reference in its entirety). For full-length Eya3 (“hEYA3”), human Eya3 isoform 2 (representing the major species identified in human cell lines by mass spectrometry, expressed as residues 127-573 of NM_001990, isoform 1) was sub-cloned into pDEST565 to express a poly-histidine-Glutathione-S-transferase (His-GST) tagged fusion protein with a TVMV protease site. The protein was purified by glutathione-S-transferase affinity chromatography followed by TVMV cleavage, Ni-NTA chromatography, and finally size exclusion chromatography.
(§1) Screening Methods. An inhibitory assay was conducted using the previously described p-nitrophenylphosphate assay (Rayapureddi, J. P. et al. Nature 426, 295-298 (2003)). Briefly, ED was incubated in a reaction mixture containing 20 mM MES pH 6, 2 mM MgCl2, 125 μM inhibitor, 3.4 mM para-nitrophenol phosphate (pNPP) and 0.01 μg/μL enzyme.
The compounds were then tested using full-length human recombinant, purified EYA3 and pNPP as a substrate. Compounds were dissolved in DMSO and diluted as needed. […] Reactions were incubated at 30° C. for 30 minutes and quenched with 100 mM EDTA pH 10. IC50 values were then calculated directly from regression curves using PRISM software. […]

[4] = system: retinal neovascularization; experiment: Mouse model of oxygen-induced retinopathy; assay type: in vivo; conditions: 100 or 50 pmoles injected at P12, analyzed at P16
Excerpt: The mouse model of oxygen-induced retinopathy mimics the retinopathy characteristic of proliferative retiopathy conditions such as retinopathy of prematurity and diabetic retinopathy. […] The resulting retinal hypoxia after day 12, when pups were brought back to 20% O2, induced excessive hypoxia-driven angiogenesis. A characteristic large avascular area at the center of the retina and excessive regrowth of superficial vessels (pre-retinal neovascular tufts) in the mid-peripheral region was observed. […] In contrast, inhibition of either Vegf or Vegfr2 in OIR experiments suppresses both neovascular tuft formation and revascularization.

[5] = system: A673 (Ewings sarcoma) cells; experiment: Mouse xenograft model of Ewings sarcoma; assay type: in vivo; conditions: A673 xenograft in nude mice
Experimental: The affect of EYA inhibitors on a mouse xenograft model of Ewings sarcoma was tested. 5×10^6 A673 (Ewings sarcoma) cells in 0.1 ml sterile matrigel were injected subcutaneously into the dorsal flank region of nude mice. Approximately 5 days after injection, the tumors were about 100-300 mm^3. […] The dose for intra-peritoneal injections was 25 mg/kg/day. The tumor size was monitored every other day. Animals were sacrificed after 2 weeks, or when tumor volume approached 10% of animal weight.

HUVECs [6] = experiment: HUVEC tubulogenesis on matrigel; assay type: cell-based, human; conditions: 7.5 μM (highest concentration tested)
Experimental: The EYA inhibitors were also tested in tubulogenesis assays. The tubulogenesis assays were performed in 15-well micro-slide (ibidi LLC, Verona Wis.), using growth factor-reduced matrigel (BD Bioscience, Billerica, Mass.). The matrix was prepared by loading 10 μl of matrigel in each micro-slide well and allowing it to solidify for 30 minutes at 37° C. HUVECs were trypsinized and resuspended at 100,000 cell/ml in EBM+2.5% FBS. 50 μl (5,000 cell) were loaded on top of the solidified matrigel and the preparation was incubated for 20 hours at 37° C. in a humidified incubator in a 5% CO2 atmosphere. Bright field images were taken using an inverted microscope at 2.5× magnification, which allowed imaging of the whole well in two pictures that were later merged in Photoshop. Tubular structures were traced and counted using NeuroJ (NIH, USA). In experiments with inhibitor, the inhibitor was added to the cell suspension before loading. Each sample was loaded in triplicate, and each treatment was repeated for reproducibility.

PTP1B = PTP1B (Homo sapiens (Human), UniProt P18031); experiment: PTP1B-catalyzed pNPP hydrolysis; assay type: biochemical; conditions: EYA3 vs PTP1B
Chain of PTP1B (P18031 whole entry, species assumed, the tested form may be a part): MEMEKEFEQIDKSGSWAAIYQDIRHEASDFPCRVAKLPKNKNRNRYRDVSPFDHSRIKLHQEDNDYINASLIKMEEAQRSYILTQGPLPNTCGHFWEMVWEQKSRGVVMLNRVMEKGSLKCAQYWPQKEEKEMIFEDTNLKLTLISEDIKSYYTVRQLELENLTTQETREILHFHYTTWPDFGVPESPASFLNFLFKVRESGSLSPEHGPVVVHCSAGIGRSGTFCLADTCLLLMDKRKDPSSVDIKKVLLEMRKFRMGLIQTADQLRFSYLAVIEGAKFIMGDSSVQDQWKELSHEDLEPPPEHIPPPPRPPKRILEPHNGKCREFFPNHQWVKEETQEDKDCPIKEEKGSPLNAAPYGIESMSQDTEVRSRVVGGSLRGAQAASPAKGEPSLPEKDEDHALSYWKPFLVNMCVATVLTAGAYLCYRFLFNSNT
Experimental: The catalytic domain of human Eya2 (“hEYA2(ED)”) was similarly sub-cloned as a polyhistidine fusion construct in the vector pDEST-527. Fusion protein was purified by NiNTA chromatography and followed by size-exclusion chromatography over a Superdex-75 column. The relative purity of protein samples was determined using SDS-PAGE. PTP1B was purified as described previously (Rayapureddi, J. P. et al. Nature 426, 295-298 (2003), incorporated by reference in its entirety).
as §1
PTP1B is a classical Cys-based tyrosine phosphatase.

retinal vasculature = experiment: Post-natal retinal angiogenesis in mice; assay type: in vivo, mouse; conditions: 100 μM injected into eyes at P0.5 and P3, P5 retinas
Experimental: Next, retinal blood vessel density and angiogenic extension were studied using induced deletion of Eya3 in mice by PDGFB-icreERT2 starting at the day of birth. Isolectin labeled retinal blood vessels at postnatal day 5 in control Eya3fl/fl (FIGS. 8b and 8d) and experimental Eya3fl/fl; PDGFB-icreERT2 (FIGS. […]) mice. FIGS. 8d and 8e are magnified images of the regions indicated in 8b and 8c, respectively.
Next, treatment with an inhibitor of Eya3 was performed to test the effect on post-natal retinal angiogenesis. Briefly, 100 μM of compound 1a was injected into the eyes of post-natal mice, at P0.5 and P3. P5 retinas were then analyzed for effects on the retinal vasculature.

| SMILES | aortic ring sprouting (mouse aortic rings) | HUVEC cell proliferation (HUVECs [1]) | EYA3-SIX2 interaction in presence of inhibitor (EYA3-SIX2 interaction) | migration of MCF10A(EYA2) cells (MCF10A-EYA2 cells) | intersegmental vessels ([2]; 0.25 μM (lowest dose tested)) | defects in the developing vasculature [2] | Vmax and Km as a function of inhibitor concentration [3] | mode of inhibition of EYA3 (substrate titration) ([3]; increasing substrate concentration) | formation of neovascular tufts [4] | tumor growth [5] | inhibition of tubulogenesis (HUVECs [6]) | greater activity towards EYA3 than PTP1B (PTP1B) | number of intersegmental vessels [2] | reduction of cell motility (MCF10A-EYA2 cells; 1 μM (lowest concentration tested)) | retinal vascular branch points (retinal vasculature) |
| --- | --- | --- | --- | --- | --- | --- | --- | --- | --- | --- | --- | --- | --- | --- | --- |
| CCc1oc2ccccc2c1C(=O)c1cc(Br)c(O)c(Br)c1 [Compound 1, Benzbromarone, reference compound] | shorter sprouts and significantly lower microvascular density | no effect on cell proliferation | unaffected | significantly inhibited cell migration | significant reduction of intersegmental vessels | Dose-dependent defects in the developing vasculature | both values decrease with increased inhibitor concentration | not a competitive inhibitor | Significant reduction in the formation of neovascular tufts | able to reduce tumor growth | effective | 4.7-6.5 fold | – | – | – |
| CCCCc1oc2ccccc2c1C(=O)c1ccc(O)cc1 [Compound 1b] | shorter sprouts and significantly lower microvascular density | no effect on cell proliferation | – | significantly inhibited cell migration | – | Dose-dependent defects in the developing vasculature | – | – | Significant reduction in the formation of neovascular tufts | – | effective | 4.7-6.5 fold | reduced the number of intersegmental vessels, but were less potent | – | – |
| CCc1oc2ccccc2c1C(=O)c1ccc(O)cc1 [Compound 1a] | shorter sprouts and significantly lower microvascular density | no effect on cell proliferation | – | significantly inhibited cell migration | – | Dose-dependent defects in the developing vasculature | – | – | Significant reduction in the formation of neovascular tufts | – | – | over 100 fold | reduced the number of intersegmental vessels, but were less potent | over 50% | quantifiable decrease in branch points |

Source: patent US9962362B2, “Use of small molecule inhibitors targeting EYA tyrosine phosphatase” (CHILDREN'S HOSPITAL MEDICAL CENTER, priority 2012, dated 2018)
